US10206400B2, “Insecticidal compounds based on isoxazoline derivatives” (Syngenta Crop Protection LLC, priority 2009, dated 2019)

How the values were obtained:
Type in all cases: in vivo
Thrips tabaci = Thrips tabaci (onion thrips) leaf disc spray test; conditions: foliar, 168 h, 200 ppm spray on sunflower leaf discs, mixed ages, 7 days, mortality
Experimental: [The procedure below names another target; the source lists this target under the same test.] Sunflower leaf discs were placed on agar in a 24-well microtiter plate and sprayed with test solutions at an application rate of 200 ppm. After drying, the leaf discs were infested with an […] population of mixed ages. After an incubation period of 7 days, samples were checked for mortality.

Diabrotica balteata = Diabrotica balteata (corn root worm) artificial diet test; conditions: 120 h, 200 ppm (concentration in well 18 ppm), L2 larvae, 5 days, larval mortality, growth regulation
Experimental: A 24-well microtiter plate (MTP) with artificial diet was treated with test solutions at an application rate of 200 ppm (concentration in well 18 ppm) by pipetting. After drying, the MTP's were infested with L2 larvae (6-10 per well). After an incubation period of 5 days, samples were checked for larval mortality and growth regulation.

Plutella xylostella = Plutella xylostella (diamond back moth) artificial diet test; conditions: 144 h, 200 ppm (concentration in well 18 ppm), L2 larvae, 6 days, larval mortality, growth regulation
Experimental: 24-well microtiter plate (MTP) with artificial diet was treated with test solutions at an application rate of 200 ppm (concentration in well 18 ppm) by pipetting. After drying, the MTP's were infested with L2 larvae (7-12 per well). After an incubation period of 6 days, samples were checked for larval mortality and growth regulation.

Spodoptera littoralis = Spodoptera littoralis (Egyptian cotton leafworm) leaf disc spray test; conditions: foliar, 72 h, 200 ppm spray on cotton leaf discs, L1 larvae, mortality, feeding behavior, growth regulation 3 days after treatment
From the text: Cotton leaf discs were placed on agar in a 24-well microtiter plate and sprayed with test solutions at an application rate of 200 ppm. After drying, the leaf discs were infested with 5 L1 larvae. The samples were checked for mortality, feeding behavior, and growth regulation 3 days after treatment (DAT).

Heliothis virescens = Heliothis virescens (tobacco budworm) egg/artificial diet test; conditions: 96 h, 200 ppm (concentration in well 18 ppm), eggs 0-24 h old on artificial diet, 4 days, egg mortality, larval mortality, growth regulation
Experimental: Eggs (0-24 h old) were placed in 24-well microtiter plate on artificial diet and treated with test solutions at an application rate of 200 ppm (concentration in well 18 ppm) by pipetting. After an incubation period of 4 days, samples were checked for egg mortality, larval mortality, and growth regulation.

Tetranychus urticae = Tetranychus urticae (two-spotted spider mite) leaf disc spray test; conditions: foliar, 192 h, 200 ppm spray on bean leaf discs, mixed ages, 8 days, egg, larval and adult mortality
From the text: Bean leaf discs on agar in 24-well microtiter plates were sprayed with test solutions at an application rate of 200 ppm. After drying, the leaf discs are infested with mite populations of mixed ages. 8 days later, discs are checked for egg mortality, larval mortality, and adult mortality.

Myzus persicae = Myzus persicae (green peach aphid), systemic test; conditions: 144 h, roots of infested pea seedlings in test solution, 6 days, mortality, special effects on the plant
From the text: Myzus persicae (Green peach aphid), systemic test: Roots of pea seedlings, infested with an aphid population of mixed ages, are placed directly in the test solutions at an application rate of 12.5 ppm. 6 days after introduction, samples are checked for mortality and special effects on the plant. The following compounds gave at least 80% control of Myzus persicae: A3, B2, B3, B5, B6, B7, B8, B11, B12, C1, C2, C3,C4, C5, C6, C7, D1, E1, E2, G1, G3, G5, G6, H1, H5, H6, H9, H10, H11, H12, H13, H14, H18, H19, H20, H24, H25, and H26.

Cc1cc(C2=NOC(c3cc(Cl)cc(Cl)c3)(C(F)(F)F)C2)ccc1C(=O)NC1CSSC1 (centres unmarked) [Compound A1, 4-[5-(3,5-Dichloro-phenyl)-5-trifluoromethyl-4,5-dihydro-isoxazol-3-yl]-N-[1,2]dithiolan-4-yl-2-methyl-benzamide]
≥ 80%: pest or weed control at 200 ppm (Thrips tabaci) | pest or weed control at 200 ppm (Diabrotica balteata) | pest or weed control at 200 ppm (Plutella xylostella) | pest or weed control at 200 ppm (Spodoptera littoralis) | pest or weed control at 200 ppm (Heliothis virescens)

Cc1cc(C2=NOC(c3cc(Cl)cc(Cl)c3)(C(F)(F)F)C2)ccc1C(=O)N[C@@H]1CONC1=O (stereo partly drawn) [Compound B1, 4-[5-(3,5-Dichloro-phenyl)-5-trifluoromethyl-4,5-dihydro-isoxazol-3-yl]-2-methyl-N-((R)-3-oxo-isoxazolidin-4-yl)-benzamide]
≥ 80%: pest or weed control at 200 ppm (Plutella xylostella) | pest or weed control at 200 ppm (Spodoptera littoralis) | pest or weed control at 200 ppm (Tetranychus urticae) | pest or weed control at 200 ppm (Heliothis virescens)

Cc1cc(C2=NOC(c3cc(Cl)cc(Cl)c3)(C(F)(F)F)C2)ccc1C(=O)N[C@@H]1CON(Cc2ccccc2)C1=O (stereo partly drawn) [Compound B4, 4-[5-(3,5-Dichloro-phenyl)-5-trifluoromethyl-4,5-dihydro-isoxazol-3-yl]-2-methyl-N-((R)-2-benzyl-3-oxo-isoxazolidin-4-yl)-benzamide]
≥ 80%: pest or weed control at 200 ppm (Thrips tabaci) | pest or weed control at 200 ppm (Diabrotica balteata) | pest or weed control at 200 ppm (Plutella xylostella) | pest or weed control at 200 ppm (Spodoptera littoralis) | pest or weed control at 200 ppm (Tetranychus urticae) | pest or weed control at 200 ppm (Heliothis virescens)

Cc1cc(C2=NOC(c3cc(Cl)cc(Cl)c3)(C(F)(F)F)C2)ccc1C(=O)N[C@@H]1CON(CCO)C1=O (stereo partly drawn) [Compound B9, 4-[5-(3,5-Dichloro-phenyl)-5-trifluoromethyl-4,5-dihydro-isoxazol-3-yl]-2-methyl-N-((R)-2-(2-hydroxy-ethyl)-3-oxo-isoxazolidin-4-yl)-benzamide]
≥ 80%: pest or weed control at 200 ppm (Thrips tabaci) | pest or weed control at 200 ppm (Diabrotica balteata) | pest or weed control at 200 ppm (Plutella xylostella) | pest or weed control at 200 ppm (Spodoptera littoralis) | pest or weed control at 200 ppm (Tetranychus urticae) | pest or weed control at 200 ppm (Heliothis virescens)

Cc1cc(C2=NOC(c3cc(Cl)cc(Cl)c3)(C(F)(F)F)C2)ccc1C(=O)N[C@@H]1CON(C2CSC2)C1=O (stereo partly drawn) [Compound B10, 4-[5-(3,5-Dichloro-phenyl)-5-trifluoromethyl-4,5-dihydro-isoxazol-3-yl]-2-methyl-N-((R)-2-(thietan-3-yl)-3-oxo-isoxazolidin-4-yl)-benzamide]
≥ 80%: pest or weed control at 200 ppm (Thrips tabaci) | pest or weed control at 200 ppm (Diabrotica balteata) | pest or weed control at 200 ppm (Plutella xylostella) | pest or weed control at 200 ppm (Spodoptera littoralis) | pest or weed control at 200 ppm (Tetranychus urticae) | pest or weed control at 200 ppm (Heliothis virescens)

Cc1cc(C2=NOC(c3cc(Cl)cc(Cl)c3)(C(F)(F)F)C2)ccc1C(=O)N[C@@H]1CON(C2CCC2)C1=O (stereo partly drawn) [Compound B11, 4-[5-(3,5-Dichloro-phenyl)-5-trifluoromethyl-4,5-dihydro-isoxazol-3-yl]-2-methyl-N-((R)-2-(cyclobutyl)-3-oxo-isoxazolidin-4-yl)-benzamide]
≥ 80%: pest or weed control at 200 ppm (Thrips tabaci) | pest or weed control at 200 ppm (Diabrotica balteata) | pest or weed control at 12.5 ppm (Myzus persicae) | pest or weed control at 200 ppm (Plutella xylostella) | pest or weed control at 200 ppm (Spodoptera littoralis) | pest or weed control at 200 ppm (Tetranychus urticae)

Cc1cc(C2=NOC(c3cc(Cl)cc(Cl)c3)(C(F)(F)F)C2)ccc1C(=O)NCC1CCN(Cc2ccccc2)O1 (centres unmarked) [Compound F1, N-(2-Benzyl-isoxazolidin-5-ylmethyl)-4-[5-(3,5-dichloro-phenyl)-5-trifluoromethyl-4,5-dihydro-isoxazol-3-yl]-2-methyl-benzamide]
≥ 80%: pest or weed control at 200 ppm (Thrips tabaci) | pest or weed control at 200 ppm (Diabrotica balteata) | pest or weed control at 200 ppm (Plutella xylostella) | pest or weed control at 200 ppm (Spodoptera littoralis) | pest or weed control at 200 ppm (Tetranychus urticae) | pest or weed control at 200 ppm (Heliothis virescens)

Cc1cc(C2=NOC(c3cc(Cl)cc(Cl)c3)(C(F)(F)F)C2)ccc1C(=O)NCC1CCN(C)O1 (centres unmarked) [Compound F2, N-(2-methyl-isoxazolidin-5-ylmethyl)-4-[5-(3,5-dichloro-phenyl)-5-trifluoromethyl-4,5-dihydro-isoxazol-3-yl]-2-methyl-benzamide]
≥ 80%: pest or weed control at 200 ppm (Thrips tabaci) | pest or weed control at 200 ppm (Diabrotica balteata) | pest or weed control at 200 ppm (Plutella xylostella) | pest or weed control at 200 ppm (Spodoptera littoralis) | pest or weed control at 200 ppm (Tetranychus urticae) | pest or weed control at 200 ppm (Heliothis virescens)

CCN1OC(CNC(=O)c2ccc(C3=NOC(c4cc(Cl)cc(Cl)c4)(C(F)(F)F)C3)cc2C)CC1=O (centres unmarked) [Compound F3, 4-[5-(3,5-Dichloro-phenyl)-5-trifluoromethyl-4,5-dihydro-isoxazol-3-yl]-2-methyl-N-[3-oxo-2-ethyl-isoxazolidin-5-ylmethyl]-benzamide]
≥ 80%: pest or weed control at 200 ppm (Thrips tabaci) | pest or weed control at 200 ppm (Diabrotica balteata) | pest or weed control at 200 ppm (Plutella xylostella) | pest or weed control at 200 ppm (Spodoptera littoralis) | pest or weed control at 200 ppm (Tetranychus urticae) | pest or weed control at 200 ppm (Heliothis virescens)

Cc1cc(C2=NOC(c3cc(Cl)cc(Cl)c3)(C(F)(F)F)C2)ccc1C(=O)NCC1CC(=O)N(CC(F)(F)F)O1 (centres unmarked) [Compound F4, 4-[5-(3,5-Dichloro-phenyl)-5-trifluoromethyl-4,5-dihydro-isoxazol-3-yl]-2-methyl-N-[3-oxo-2-(1,1,1-trifluoroethyl)-isoxazolidin-5-ylmethyl]-benzamide]
≥ 80%: pest or weed control at 200 ppm (Thrips tabaci) | pest or weed control at 200 ppm (Diabrotica balteata) | pest or weed control at 200 ppm (Plutella xylostella) | pest or weed control at 200 ppm (Spodoptera littoralis) | pest or weed control at 200 ppm (Tetranychus urticae) | pest or weed control at 200 ppm (Heliothis virescens)

Cc1cc(C2=NOC(c3cc(Cl)cc(Cl)c3)(C(F)(F)F)C2)ccc1C(=O)NCC1CO[S+]([O-])O1 (centres unmarked) [Compound F5, 4-[5-(3,5-dichlorophenyl)-5-(trifluoromethyl)-4H-isoxazol-3-yl]-2-methyl-N-[(2-oxido-1,3,2-dioxathiolan-2-ium-4-yl)methyl]benzamide]
≥ 80%: pest or weed control at 200 ppm (Thrips tabaci) | pest or weed control at 200 ppm (Diabrotica balteata) | pest or weed control at 200 ppm (Plutella xylostella) | pest or weed control at 200 ppm (Spodoptera littoralis) | pest or weed control at 200 ppm (Tetranychus urticae) | pest or weed control at 200 ppm (Heliothis virescens)

COc1ccc(N2CCC(CNC(=O)c3ccc(C4=NOC(c5cc(Cl)cc(Cl)c5)(C(F)(F)F)C4)cc3C)S2(=O)=O)cc1 (centres unmarked) [Compound F6, 4-[5-(3,5-Dichloro-phenyl)-5-trifluoromethyl-4,5-dihydro-isoxazol-3-yl]-N-[2-(4-methoxy-phenyl)-1,1-dioxo-1 lambda*6*-isothiazolidin-5-ylmethyl]-2-methyl-benzamide]
≥ 80%: pest or weed control at 200 ppm (Diabrotica balteata) | pest or weed control at 200 ppm (Plutella xylostella) | pest or weed control at 200 ppm (Spodoptera littoralis) | pest or weed control at 200 ppm (Tetranychus urticae) | pest or weed control at 200 ppm (Heliothis virescens)
